Experimental data as given in the NIST ThermoML archive (doi:10.1021/je050406x).
± gives the expanded uncertainty stated by the source.

Columns and labels:
[1] = Crystal; DTA
[2] = Molar enthalpy of transition or fusion; conditions: Crystal; DSC

Normal melting temperature [1]: 28.26 ± 0.5 °C
Molar enthalpy of transition or fusion [2]: 3.75 ± 0.0908 kcal/mol
SMILES: O=C1COCCO1 [1,4-dioxan-2-one]
